Experiments:
Assay type in all cases: in vivo
[1] = tested on: Stellaria media; assay: Test Example 5: herbicidal effect by foliage application, plastic box (symbol P); conditions: 320 g/ha, 3 weeks after application
Outline: (§1)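 After sowing into sterilized diluvial soil and growing two weeks under glass at 25° C. to 30° C., seedlings receive a uniform foliar spray of diluted emulsion. Damage is judged visually three weeks on.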

[2] = tested on: soybean; assay: Test Example 4: effect on crop by soil treatment (symbol d); conditions: for d: soybean, effect grade on crop: 320 g/ha
Outline: (§2)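 Grown at 25° C. to 30° C. in a greenhouse, the crops came from seed sown spot-wise in sterilized diluvial soil under roughly 1.5 cm of covering soil.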

[3] = tested on: Echinochloa crus-galli var. crus-galli; assay: Test Example 3: herbicidal effect by foliage application, Wagner pot (symbol H); conditions: application herbicide amount 320 g/ha
Outline: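 The compound, formulated as an emulsion and diluted with water to a predetermined rate, is applied uniformly to leaves of two-week-old seedlings growing in submerged alluvial soil at 25–30 °C. Rice is included. Each plant is assessed 3 weeks later using defined criteria.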

[4] = tested on: directly sowed rice plant; assay: Test Example 3: effect on crop by foliage application, Wagner pot (symbol b); conditions: application herbicide amount 320 g/ha
Outline: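 Greenhouse culture at 25–30 °C of seeded rice, Cyperus difformis, Leptochloa chinensis and Echinochloa crus-galli var. crus-galli, in alluvial soil held under 0.1–0.5 cm of water in a Wagner pot.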

[5] = tested on: corn; assay: Test Example 5: effect on crop by foliage application, plastic box (symbol c); conditions: 320 g/ha, 3 weeks after application
Outline: (§3)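 Plants were raised from seed in a greenhouse (25° C. to 30° C.) after sowing in a plastic box of sterilized diluvial soil.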

[6] = tested on: Apera spica-venti; assay: Test Example 5: herbicidal effect by foliage application, plastic box (symbol L); conditions: 320 g/ha, 3 weeks after application
Outline: as §1

[7] = tested on: Lolium multiflorum Lam.; assay: Test Example 5: herbicidal effect by foliage application, plastic box (symbol K); conditions: 320 g/ha, 3 weeks after application
Outline: as §1

[8] = tested on: Avena fatua; assay: Test Example 5: herbicidal effect by foliage application, plastic box (symbol I); conditions: 320 g/ha, 3 weeks after application
Outline: as §1

[9] = tested on: Stellaria media; assay: Test Example 4: herbicidal effect by soil treatment (symbol P); conditions: for P: Stellaria media, herbicidal effect grade: 320 g/ha
Outline: (§4)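 Seeds were sown in sterilized diluvial soil, covered with about 1.5 cm of soil, and the soil surface was sprayed with a water-diluted emulsion of the compound at a predetermined rate. Plants grew in a greenhouse at 25° C. to 30° C.; effects were scored visually 3 weeks after application.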

[10] = tested on: rapeseed; assay: Test Example 4: effect on crop by soil treatment (symbol g); conditions: for g: rapeseed, effect grade on crop: 320 g/ha
Outline: as §2

[11] = tested on: rice plant; assay: Test Example 5: effect on crop by foliage application, plastic box (symbol b); conditions: 320 g/ha, 3 weeks after application
Outline: as §3

[12] = tested on: Setaria viridis; assay: Test Example 4: herbicidal effect by soil treatment (symbol G); conditions: for G: Setaria viridis, herbicidal effect grade: 320 g/ha
Outline: as §4

[13] = tested on: Apera spica-venti; assay: Test Example 4: herbicidal effect by soil treatment (symbol L); conditions: for L: Apera spica-venti, herbicidal effect grade: 320 g/ha
Outline: as §4

[14] = tested on: wheat; assay: Test Example 4: effect on crop by soil treatment (symbol e); conditions: for e: wheat, effect grade on crop: 320 g/ha
Outline: as §2

[15] = tested on: Chenopodium album; assay: Test Example 5: herbicidal effect by foliage application, plastic box (symbol O); conditions: 320 g/ha, 3 weeks after application
Outline: as §1

[16] = tested on: Digitaria ciliaris; assay: Test Example 5: herbicidal effect by foliage application, plastic box (symbol F); conditions: 320 g/ha, 3 weeks after application
Outline: as §1

[17] = tested on: Alopecurus myosuroides; assay: Test Example 5: herbicidal effect by foliage application, plastic box (symbol J); conditions: 320 g/ha, 3 weeks after application
Outline: as §1

[18] = application herbicide amount 320 g/ha

Compound: CC(=O)CC1CC(O)=C(c2c(C)cc(Oc3ccccc3)cc2C)C1=O (stereo not shown) [7-014]
- P: Stellaria media, herbicidal effect (criteria of Test Example 1) [1]: 0 (Herbicidal ratio of 5% or lower (almost no effect))
- Effect on crop grade, d: soybean [2, 18]: 0 (Herbicidal ratio of 5% or lower (almost no effect))
- herbicidal effect on H (Echinochloa crus-galli var. crus-galli), grade 0-5 [3]: 4 (Herbicidal ratio of 70% or higher and lower than 90%)
- effect on crop b (directly sowed rice plant), grade 0-5 [4]: 5 (Herbicidal ratio of 90% or more (almost completely withered))
- c: corn, effect on crop (criteria of Test Example 1) [5]: 3 (Herbicidal ratio of 40% or higher and lower than 70%)
- L: Apera spica-venti, herbicidal effect (criteria of Test Example 1) [6]: 0 (Herbicidal ratio of 5% or lower (almost no effect))
- K: Lolium multiflorum Lam., herbicidal effect (criteria of Test Example 1) [7]: 5 (Herbicidal ratio of 90% or more (almost completely withered))
- I: Avena fatua, herbicidal effect (criteria of Test Example 1) [8]: 1 (Herbicidal ratio of 5% or higher and lower than 20%)
- Herbicidal effect grade, P: Stellaria media [9, 18]: 0 (Herbicidal ratio of 5% or lower (almost no effect))
- Effect on crop grade, g: rapeseed [10, 18]: 0 (Herbicidal ratio of 5% or lower (almost no effect))
- b: directly sowed rice plant, effect on crop (criteria of Test Example 1) [11]: 3 (Herbicidal ratio of 40% or higher and lower than 70%)
- Herbicidal effect grade, G: Setaria viridis [12, 18]: 2 (Herbicidal ratio of 20% or higher and lower than 40%)
- Herbicidal effect grade, L: Apera spica-venti [13, 18]: 0 (Herbicidal ratio of 5% or lower (almost no effect))
- Effect on crop grade, e: wheat [14, 18]: 0 (Herbicidal ratio of 5% or lower (almost no effect))
- O: Chenopodium album, herbicidal effect (criteria of Test Example 1) [15]: 0 (Herbicidal ratio of 5% or lower (almost no effect))
- F: Digitaria ciliaris, herbicidal effect (criteria of Test Example 1) [16]: 5 (Herbicidal ratio of 90% or more (almost completely withered))
- J: Alopecurus myosuroides, herbicidal effect (criteria of Test Example 1) [17]: 0 (Herbicidal ratio of 5% or lower (almost no effect))

Compound: CC(CC1CC(O)=C(c2c(C)cc(C)cc2C)C1=O)=NOc1ccccc1 (stereo not shown) [1-057]
- P: Stellaria media, herbicidal effect grade [1]: 0 (Herbicidal ratio of 5% or lower (almost no effect))
- d (soybean) effect on crop grade [2, 18]: 0 (Herbicidal ratio of 5% or lower (almost no effect))
- herbicidal effect on H (Echinochloa crus-galli var. crus-galli), grade 0-5 [3]: 4 (Herbicidal ratio of 70% or higher and lower than 90%)
- effect on crop b (directly sowed rice plant), grade 0-5 [4]: 5 (Herbicidal ratio of 90% or more (almost completely withered))
- c: corn, effect on crop grade [5]: 0 (Herbicidal ratio of 5% or lower (almost no effect))
- L: Apera spica-venti, herbicidal effect grade [6]: 1 (Herbicidal ratio of 5% or higher and lower than 20%)
- K: Lolium multiflorum Lam., herbicidal effect grade [7]: 5 (Herbicidal ratio of 90% or more (almost completely withered))
- I: Avena fatua, herbicidal effect grade [8]: 2 (Herbicidal ratio of 20% or higher and lower than 40%)
- P (Stellaria media) herbicidal effect grade [9, 18]: 0 (Herbicidal ratio of 5% or lower (almost no effect))
- g (rapeseed) effect on crop grade [10, 18]: 4 (Herbicidal ratio of 70% or higher and lower than 90%)
- b: directly sowed rice plant, effect on crop grade [11]: 3 (Herbicidal ratio of 40% or higher and lower than 70%)
- G (Setaria viridis) herbicidal effect grade [12, 18]: 4 (Herbicidal ratio of 70% or higher and lower than 90%)
- L (Apera spica-venti) herbicidal effect grade [13, 18]: 4 (Herbicidal ratio of 70% or higher and lower than 90%)
- e (wheat) effect on crop grade [14, 18]: 0 (Herbicidal ratio of 5% or lower (almost no effect))
- O: Chenopodium album, herbicidal effect grade [15]: 0 (Herbicidal ratio of 5% or lower (almost no effect))
- F: Digitaria ciliaris, herbicidal effect grade [16]: 3 (Herbicidal ratio of 40% or higher and lower than 70%)
- J: Alopecurus myosuroides, herbicidal effect grade [17]: 3 (Herbicidal ratio of 40% or higher and lower than 70%)

Compound: CON=C(CC1CC(O)=C(c2c(C)cc(C)cc2C)C1=O)C1CCCCC1 (stereo not shown) [1-085]
- P: Stellaria media, herbicidal effect (criteria 0-5) [1]: 0 (Herbicidal ratio of 5% or lower (almost no effect))
- d: soybean, effect grade on crop [2]: 0 (Herbicidal ratio of 5% or lower (almost no effect))
- herbicidal effect on H (Echinochloa crus-galli var. crus-galli), grade 0-5 [3]: 5 (Herbicidal ratio of 90% or more (almost completely withered))
- effect on crop b (directly sowed rice plant), grade 0-5 [4]: 5 (Herbicidal ratio of 90% or more (almost completely withered))
- c: corn, effect on crop (criteria 0-5) [5]: 5 (Herbicidal ratio of 90% or more (almost completely withered))
- L: Apera spica-venti, herbicidal effect (criteria 0-5) [6]: 3 (Herbicidal ratio of 40% or higher and lower than 70%)
- K: Lolium multiflorum Lam., herbicidal effect (criteria 0-5) [7]: 3 (Herbicidal ratio of 40% or higher and lower than 70%)
- I: Avena fatua, herbicidal effect (criteria 0-5) [8]: 3 (Herbicidal ratio of 40% or higher and lower than 70%)
- P: Stellaria media, herbicidal effect grade [9]: 0 (Herbicidal ratio of 5% or lower (almost no effect))
- g: rapeseed, effect grade on crop [10]: 0 (Herbicidal ratio of 5% or lower (almost no effect))
- b: directly sowed rice plant, effect on crop (criteria 0-5) [11]: 4 (Herbicidal ratio of 70% or higher and lower than 90%)
- G: Setaria viridis, herbicidal effect grade [12]: 5 (Herbicidal ratio of 90% or more (almost completely withered))
- L: Apera spica-venti, herbicidal effect grade [13]: 3 (Herbicidal ratio of 40% or higher and lower than 70%)
- e: wheat, effect grade on crop [14]: 0 (Herbicidal ratio of 5% or lower (almost no effect))
- O: Chenopodium album, herbicidal effect (criteria 0-5) [15]: 0 (Herbicidal ratio of 5% or lower (almost no effect))
- F: Digitaria ciliaris, herbicidal effect (criteria 0-5) [16]: 3 (Herbicidal ratio of 40% or higher and lower than 70%)
- J: Alopecurus myosuroides, herbicidal effect (criteria 0-5) [17]: 3 (Herbicidal ratio of 40% or higher and lower than 70%)

Compound: CON=C(C)CC1CC(OC(=O)COc2ccc(I)cc2)=C(c2c(C)cc(C)cc2C)C1=O (stereo not shown) [1-082]
- P: Stellaria media, herbicidal effect (criteria 0-5) [1]: 0 (Herbicidal ratio of 5% or lower (almost no effect))
- d: soybean, effect grade on crop [2]: 2 (Herbicidal ratio of 20% or higher and lower than 40%)
- herbicidal effect on H (Echinochloa crus-galli var. crus-galli), grade 0-5 [3]: 5 (Herbicidal ratio of 90% or more (almost completely withered))
- effect on crop b (directly sowed rice plant), grade 0-5 [4]: 5 (Herbicidal ratio of 90% or more (almost completely withered))
- c: corn, effect on crop (criteria 0-5) [5]: 5 (Herbicidal ratio of 90% or more (almost completely withered))
- L: Apera spica-venti, herbicidal effect (criteria 0-5) [6]: 5 (Herbicidal ratio of 90% or more (almost completely withered))
- K: Lolium multiflorum Lam., herbicidal effect (criteria 0-5) [7]: 5 (Herbicidal ratio of 90% or more (almost completely withered))
- I: Avena fatua, herbicidal effect (criteria 0-5) [8]: 5 (Herbicidal ratio of 90% or more (almost completely withered))
- P: Stellaria media, herbicidal effect grade [9]: 0 (Herbicidal ratio of 5% or lower (almost no effect))
- g: rapeseed, effect grade on crop [10]: 4 (Herbicidal ratio of 70% or higher and lower than 90%)
- b: directly sowed rice plant, effect on crop (criteria 0-5) [11]: 5 (Herbicidal ratio of 90% or more (almost completely withered))
- G: Setaria viridis, herbicidal effect grade [12]: 5 (Herbicidal ratio of 90% or more (almost completely withered))
- L: Apera spica-venti, herbicidal effect grade [13]: 5 (Herbicidal ratio of 90% or more (almost completely withered))
- e: wheat, effect grade on crop [14]: 3 (Herbicidal ratio of 40% or higher and lower than 70%)
- O: Chenopodium album, herbicidal effect (criteria 0-5) [15]: 1 (Herbicidal ratio of 5% or higher and lower than 20%)
- F: Digitaria ciliaris, herbicidal effect (criteria 0-5) [16]: 5 (Herbicidal ratio of 90% or more (almost completely withered))
- J: Alopecurus myosuroides, herbicidal effect (criteria 0-5) [17]: 5 (Herbicidal ratio of 90% or more (almost completely withered))

Compound: CC(CC1CC(O)=C(c2c(C)cc(C)cc2C)C1=O)=NOC(C)(C)C (stereo not shown) [1-053]
- P: Stellaria media, herbicidal effect grade [1]: 0 (Herbicidal ratio of 5% or lower (almost no effect))
- d (soybean) effect on crop grade [2, 18]: 0 (Herbicidal ratio of 5% or lower (almost no effect))
- herbicidal effect on H (Echinochloa crus-galli var. crus-galli), grade 0-5 [3]: 5 (Herbicidal ratio of 90% or more (almost completely withered))
- effect on crop b (directly sowed rice plant), grade 0-5 [4]: 5 (Herbicidal ratio of 90% or more (almost completely withered))
- c: corn, effect on crop grade [5]: 3 (Herbicidal ratio of 40% or higher and lower than 70%)
- L: Apera spica-venti, herbicidal effect grade [6]: 3 (Herbicidal ratio of 40% or higher and lower than 70%)
- K: Lolium multiflorum Lam., herbicidal effect grade [7]: 5 (Herbicidal ratio of 90% or more (almost completely withered))
- I: Avena fatua, herbicidal effect grade [8]: 2 (Herbicidal ratio of 20% or higher and lower than 40%)
- P (Stellaria media) herbicidal effect grade [9, 18]: 0 (Herbicidal ratio of 5% or lower (almost no effect))
- g (rapeseed) effect on crop grade [10, 18]: 3 (Herbicidal ratio of 40% or higher and lower than 70%)
- b: directly sowed rice plant, effect on crop grade [11]: 5 (Herbicidal ratio of 90% or more (almost completely withered))
- G (Setaria viridis) herbicidal effect grade [12, 18]: 4 (Herbicidal ratio of 70% or higher and lower than 90%)
- L (Apera spica-venti) herbicidal effect grade [13, 18]: 3 (Herbicidal ratio of 40% or higher and lower than 70%)
- e (wheat) effect on crop grade [14, 18]: 0 (Herbicidal ratio of 5% or lower (almost no effect))
- O: Chenopodium album, herbicidal effect grade [15]: 1 (Herbicidal ratio of 5% or higher and lower than 20%)
- F: Digitaria ciliaris, herbicidal effect grade [16]: 3 (Herbicidal ratio of 40% or higher and lower than 70%)
- J: Alopecurus myosuroides, herbicidal effect grade [17]: 4 (Herbicidal ratio of 70% or higher and lower than 90%)
